Where only a bound is given, the exact number is not on record here.

Usually melting point stands for the temperature, or range, at which the solid turns liquid. Molecule `Cc1cn(C(C)(C)C(=O)N(C)C)nc1-c1ccc(Cl)cc1Cl` registered a melting point of 110 to 111 °C.
The value for `CC(=O)c1c[nH]c2c3c(ccc12)OCC3` was 233 to 234 °C; that for `Nc1nc2[nH]c(=S)sc2c(=O)[nH]1` was more than 300 °C; that for `CCN1c2ncccc2C(=O)Nc2c(C)cc(NCCCO)nc21` was 222 to 224 °C.
In turn, `COc1ccc2c(c1)C(=O)C(=Cc1nccs1)CO2` showed a melting point of 130 to 132 °C.
The value for `CC(C)(C)CC1NC(C(=O)NCC2CCC(O)CC2)C(c2cccc(Cl)c2F)C12C(=O)Nc1cc(Cl)ccc12` (stereo not drawn) was 192 °C.
The value for `CCCC(=O)C(=O)[C@H](CC1CCCCC1)NC(=O)[C@H](Cc1cn(S(=O)(=O)c2ccc(C)cc2)cn1)NC(=O)OC(C)(OC)OC` was 60 to 67 °C; that for `COc1cc(OCCN2CCCC2)c2c(=O)[nH]c(-c3cc(C)nc(C)c3)nc2c1` was 190 to 191 °C; that for `COP(=O)(CC(=C(c1ccc(F)cc1)c1ccc(F)cc1)n1cnnn1)OC` was 133 to 134 °C.
With `O=C(O)c1nc(-c2ccccc2Oc2ccc(F)cc2O)no1`, the melting point lay within 127 to 128 °C.
The value for `CCc1nc2c(C)cc(C)nc2n1Cc1ccc(-c2ccccc2-c2c(O)c(=O)c2=O)cc1` was 245 to 247 °C.
The value for `CCOC(=O)c1c(N2CCN(C(=O)c3cccs3)CC2)c2c(C)csc2n(Cc2ccccc2)c1=O` was 195 °C; that for `Cc1cccc(C)c1OCC(C)NCC(O)c1cc(C(N)=O)cs1` (stereo not drawn) was 125 to 137 °C.
The value for `C=CCSc1cn(C)cc(-c2cccc(C(F)(F)F)c2)c1=O` was 74 to 75 °C; that for `OC1CCc2cc(Cl)c(Cl)cc2C1` (stereo not drawn) was 103 to 105 °C; that for `COC1=C(OC)C(=O)C(Cl)=C(C)C1=O` was 66 to 68 °C.
As for `O=[N+]([O-])c1cc(C2=NOC(c3cc(Cl)cc(Cl)c3)(C(F)(F)F)C2)ccc1-n1cncn1` (stereo not drawn), the melting point fell in the range of 64 to 72 °C.
The value for `COc1ccc(C2Nc3ccccc3-c3c([N+](=O)[O-])cnn32)cc1` (stereo not drawn) was 181 to 183 °C.
The value for `COc1ccc2c(c1)C(=O)N(c1ccc3c(c1)n(C)c(=O)n3C)C2` was 268 to 270 °C.
The value for `CCc1ccc2c(c1)C(=O)c1ccc(C(=O)O)cc1S2(=O)=O` was 300 to 303 °C.
Take `CC(C)=CCn1c(=O)c(C2=Nc3ccccc3S(=O)(=O)N2)c(O)c2ccccc21`: the melting point was in the range of 249 to 251 °C.
The value for `C#Cc1ccc(C23OCC(C4CCCCC4)(CO2)CO3)cc1` was 190 to 192 °C; that for `CCC(=O)COc1ccc(CC2SC(=O)NC2=O)cc1` (stereo not drawn) was 142 to 146 °C.
Molecule `CCN1CC=C(c2c[nH]c3ccc([N+](=O)[O-])cc23)CC1` showed a melting point of 188 to 190 °C.
The value for `Cc1oc2ccc(N)cc2c1C` was 77 to 78 °C; that for `COC(=O)N1CCc2ccccc2CC1` was 53 to 54 °C.
The value for `CC(C)C(=O)N1CCC(C(CS(=O)(=O)c2ccc(Oc3ccc(OC(F)(F)F)cc3)cc2)N(O)C=O)CC1` (stereo not drawn) was 139 to 140 °C.
The value for `FC(F)(F)C1(c2cc(Cl)cc(Cl)c2)CC(c2ccc(Br)c3ccccc23)=NO1` (stereo not drawn) was 127 to 130 °C; that for `CCN(CC)C(=O)c1nc(CCl)n(-c2ccc(Cl)cc2C(=O)c2ccccc2)n1` was 118 to 119 °C.
`NC(=S)N1CCC(c2cccc(C(F)(F)F)c2)=N1`: the melting point was in the range of 159 to 161 °C.
The value for `CN(C)c1ccc(C2(c3ccc(N(C)C)cc3N(C)C)OC(=O)c3ccc(N(C)C)cc32)c(N(C)C)c1` was 188 to 192 °C; that for `CC(C)(C)c1ccnc(C(=O)c2[nH]c3cc(Cl)ccc3c2CC(=O)O)c1` was 203 to 205 °C.
The value for `CC(C)NC(=NC#N)Nc1ccc(C2=NNC(=O)CC2C)cc1` (stereo not drawn) was 255 °C; that for `CCOc1cc(OCCCc2cn(-c3ccc(C(F)(F)F)cn3)nc2OCC)ccc1CCC(=O)O` was 96 to 97 °C.
The value for `FC(F)(F)c1cccc(-c2c[nH]c(C3CCN(c4ncnc5[nH]ncc45)CC3)n2)c1` was 281 °C.
The molecule `c1cc(-c2ccc(N3CCNCC3)cc2)[nH]n1` came in with a melting point of 290 °C.
The value for `Cc1ccccc1Nc1ccccc1C=C(Br)Br` was 65 to 67 °C.
The value for `O=C(OCc1ccccc1)C(CO)N(C(=O)OCc1ccccc1)C(=O)c1ccccc1` (stereo not drawn) was 94 to 95 °C; that for `Cc1noc(C)c1Cn1cc(-n2c(=O)n(C)n(Cc3ccccc3)c2=O)cn1` was 124 to 126 °C; that for `COC(=O)c1cc(C(=O)N2CCCOCC2)c2cc(Cc3ccc(F)cc3)cnc2c1O` was 136 to 137 °C.
The value for `Cn1cncc1C(O)(c1ccc(C=O)cc1)c1ccc2c(c1)c(-c1cccc(Cl)c1)nc1nnnn12` (stereo not drawn) was 170 °C.
With `CSc1cccc(C(=C2CN(C(c3ccccc3)c3ccccc3)C2)S(C)(=O)=O)c1`, the melting point is 146 °C.
The value for `O=C(O)C1CSC(C2CCCCC2)=NN1C(=O)CCS` (stereo not drawn) was 95 to 97 °C.
The value for `CCCOc1ccccc1C(=O)Nc1cccnc1C(N)=O` was 116 to 118 °C.
The molecule `COc1ccc(C2(O)c3ccccc3-c3ccccc32)cc1` had a melting point of 91 to 93 °C.
The value for `CCC1CCC2C3CCC4CC(O)CCC4(C)C3C(N(C)C)CC12C` (stereo not drawn) was 147 to 150 °C.
The value for `C#CCOc1ccc(C2c3[nH]c4ccccc4c3CC(C(=O)OC)N2C(=O)CCl)cc1` (stereo not drawn) was 218 °C; that for `O=C(O)c1ccc(N(Cc2cncs2)c2ccc(OC(F)F)c(OC(F)F)c2)cc1` was 144 to 146 °C; that for `Cc1cccc(Nc2ncccc2[N+](=O)[O-])n1` was 153 to 154 °C.
`COc1ccc2c(c1)OC(=O)N(C1CCCCC1)C2` yielded a melting point of 76 to 77 °C.
The value for `COc1ccc(C(O)CNCCc2ccc(OC)c(OC)c2Cl)cc1` (stereo not drawn) was 117 to 120 °C; that for `CCCCc1ncc[nH]1` was 35 to 37 °C; that for `Clc1cc(CBr)ccc1-c1ccccc1C1=NNN(C(c2ccccc2)(c2ccccc2)c2ccccc2)N1` was 15 to 60 °C.
`CCOC(=O)[C@H](Cc1cc(Cl)c(N)c(Cl)c1)NC(=O)C(F)(F)F` gave a melting point of 124 to 125 °C.
For the molecule `O=C(O)Cc1nn(Cc2nc3cc(Br)ccc3s2)c(=O)c2ccccc12`, the melting point worked out at 214 °C.
The value for `COc1ccc2cc(-c3noc(C)n3)c(=O)oc2c1` was 218 to 220 °C; that for `CC1(Oc2ccc(CC(=O)c3ccc4c(c3)CCC4)cc2)CCCC1C(=O)O` (stereo not drawn) was 191 to 193 °C.
As to `O=C1c2ccccc2C(=O)N1CCCn1c2ccccc2c2nc3ccccc3nc21`, the melting point lay within 212 to 214 °C.
The value for `CCN1C(=O)Cc2cc(C(=O)c3cccs3)ccc21` was 158 to 160 °C; that for `CS(=O)(=O)c1ccc(-c2cc(C(=O)c3ccncc3)sc2N2CCOCC2)cc1` was 128 °C; that for `CCCn1c(=O)c2[nH]c(-c3ccc4c(c3)OCCO4)nc2n(CCC)c1=O` was 280 to 282 °C.
The value for `COc1ccccc1NC(=O)Nc1nc(N(CCC(=O)O)Cc2ccc(Cl)c(Cl)c2)nc(=O)[nH]1` was 188 °C.
The value for `CN1CCC(n2cc(C3=C(c4cn(C)c5ccccc45)C(=O)NC3=O)c3ccccc32)CC1` was 316 to 318 °C; that for `COc1ccc2[nH]c(S(=O)Cc3c(N)cc(C)c(OC)c3C)nc2c1` (stereo not drawn) was 149 to 155 °C.
`COCCc1nc2c(N)nc3ccccc3c2n1CCCNC(=O)c1cc2ccccc2cn1` returned a melting point of 198 °C.
The value for `CCCCCCC1=CC(=C(Br)Br)NC1=O` was 103 to 105 °C; that for `O=C(O)CC1CCc2c(c3ccccc3n2Cc2ccccc2)C1` (stereo not drawn) was 156 to 158 °C; that for `Cc1ccc(C(=O)CCCl)cc1` was 77.5 to 78.5 °C.
The value for `COc1cc(C(=O)N(CCCC(=O)O)c2cccc3ccccc23)cc(OC)c1OC` was 143 to 145 °C; that for `CCN(CC)C(=O)c1cc2cc(OC)c(OC)cc2c(-c2ccccc2)n1` was 134 °C; that for `Cc1cc(C2(O)C(=O)N(Cc3ccccc3)c3ccccc32)cc(C)c1O[Si](C)(C)C(C)(C)C` (stereo not drawn) was 147 °C.
The value for `Cc1nc2ccccc2c(=O)n1CCCl` was 114 to 116 °C.
Regarding `COc1ccc(-c2ccccc2C#N)cc1`, the melting point was in the range of 82 to 83 °C.
The value for `O=C(OCc1ccccc1)N1CCN(c2ccc(-c3ccnc(Nc4ccc5[nH]nnc5c4)n3)cn2)CC1` was 247 to 249 °C; that for `Cn1c2c(c3cccc(F)c31)C(=O)NCCC2` was 233 to 235 °C; that for `Oc1ccc(P(c2ccc(O)cc2)c2ccc(O)cc2)cc1` was 128 to 133 °C.
The value for `Cc1oc(C=Cc2cccc(C(F)(F)F)c2)nc1CC(=O)O` was 157 to 158 °C; that for `COc1cccc(C=C2SC(=S)NC2=O)c1OC` was 268 to 269 °C.
The value for `Cc1ccsc1C(=O)c1cc(CN(C)C)c(O)c(C(C)(C)C)c1` was 149 to 150 °C.
Take `COCCOc1cc2ncc(C#N)c(Nc3cc(OC)c(Cl)cc3Cl)c2cc1OC`: the melting point was in the range of 210 to 212 °C.
With `CN(C)c1ccncc1CCCOc1ccc(OCCCC(=O)O)cc1`, the melting point fell in the range of 106 to 108 °C.
`CC(C)(C)C#CC(=O)C#CC(C)(C)C` gave a melting point of 62 to 63.5 °C.
The value for `CCOC(=O)c1sc(SC)c2c1CCC(Br)C2=O` (stereo not drawn) was 147 to 148 °C; that for `CCCCCCCCCCCCNC(=O)Oc1ccc2oc3ccccc3c2c1` was 112 to 114 °C.
The value for `CC(C)(C)OC(=O)NCCNC(=O)c1ncccc1Oc1ccccc1` was 97 to 98 °C; that for `O=C1NC(=O)N2C(c3ccccc3)SC[C@@H]12` (stereo partly drawn) was 177 to 179 °C; that for `CC(CSC(=O)c1ccccc1)C(=O)N1CC(Oc2ccc(CC3Nc4cc(C(F)(F)F)c(S(N)(=O)=O)cc4S(=O)(=O)N3)cc2)CC1C(=O)O` (stereo not drawn) was 170 to 182 °C.
`Cc1ccc(-c2[nH]c3ccc(Cl)cc3c2-c2ccc(S(C)(=O)=O)cc2)cc1` gave a melting point of 238 to 240 °C.

Values taken from a melting point compilation (Tetko et al.; mined from patent text by program, amines drawn as free bases though some values may be those of a salt).
